Measurements published in patent publication US9220705B2, “Method of treating colorectal cancer” (priority 2013, dated 2015).

How the values were obtained:
[1] = tested on: panel of human tumor cell lines (A431, MCF-7, A375, HCT-15, SW480, CaCo-2, DLD-1); test: MTT cytotoxicity, comparison over the Table 1 panel; type: cell-based; conditions: average over seven cell lines of Table 1
Method: (§1) After 24 h, the medium was removed and replaced with a fresh one containing the compound to be studied, at the appropriate concentration, dissolved in 0.9% sodium chloride solution just before use. Triplicate cultures were established for each treatment. After 72 h, each well was treated with […] of a 5 mg mL^−1 MTT saline solution and, after 5 h of incubation, 100 μL of a sodium dodecylsulfate (SDS) solution in 0.01 M HCl were added. After an overnight incubation, the inhibition of cell growth induced by the tested complexes was determined by measuring the absorbance of each well at 570 nm using a BioRad 680 microplate reader. Mean absorbance for each drug dose was expressed as percentage of the control and plotted vs. drug concentration. Dose-response curves were fitted and IC50 values were calculated with four parameter logistic model (4PL).
The cytotoxicity was evaluated by means of the MTT test for 72 h treatment with increasing concentrations of the tested compounds.

[2] = type: physicochemical
Description: Lipophilicity is usually expressed in terms of n-octanol/water partition coefficient, log Po/w, and correlates with cellular uptake by passive diffusion (Liu, X., et al., Pharm. Res. 2011, 28, 962-977).
Since RP-HPLC retention is due to partitioning between mobile (polar) and stationary (apolar) phases, there is a good correlation between capacity factor k′ (k′=(tR−t0)/t0, where t0 is the retention time for an unretained compound and tR is the retention time of the analyte) and partition coefficient (log Po/w=a+b log k′). Thus the HPLC procedure represents a good alternative to the time- and material-consuming shake-flask method. […] This implies that there are specific import (CTR1, OCT, etc.) or export (ATP7B) mechanisms which operate selectively on the different types of complexes.

[3] = tested on: Lewis lung carcinoma (LLC); test: In vivo anticancer activity toward Lewis lung carcinoma; parameters: species or system C57BL mice; conditions: LLC-bearing mice
Method: All studies involving animal testing were carried out in accordance with the ethical guidelines for animal research adopted by the University of Padua, acknowledging the Italian regulation and the European Directive 86/609/EEC as to animal welfare and protection and the related codes of practice. The mice were purchased from Charles River, Italy, and housed in steel cages under controlled environmental conditions (constant temperature, humidity, and 12 h dark/light cycle) and alimented with commercial standard feed and tap water ad libitum. Animals were observed daily, and body weight and food intake recorded. The Lewis lung carcinoma (LLC) cell line was purchased from ECACC, UK. The LLC cell line was maintained in D-MEM (Euroclone) supplemented with 10% heat-inactivated FBS (Euroclone), 10 mM L-glutamine, 100 U mL^−1 penicillin, and 100 μg mL^−1 streptomycin in a 5% CO2 air incubator at 37° C.
The Lewis lung carcinoma (LLC) was implanted i.m. as a 2×10^6 cell inoculum into the right hind leg of 8-week old male and female C57BL mice (24±3 g body weight). […] At day 15, animals were sacrificed, the legs were amputated at the proximal end of the femur, and the inhibition of tumor growth was determined according to the difference in weight of the tumor-bearing leg and the healthy leg of the animals expressed as % referred to the control animals. Body weight was measured every two days and was taken as a parameter for systemic toxicity.
All the values are the means±S.D. of not less than three measurements. Multiple comparisons were made by Tukey-Kramer test (**p<0.01; *p or °p<0.05).
The in vivo antitumor activity of compound 1 was evaluated in a model of solid tumor, the syngeneic murine Lewis lung carcinoma (LLC). […] For the assessment of the adverse side effects, changes in body weights of tumor-bearing mice were monitored daily (FIG. 3).

[4] = tested on: LoVo colorectal adenocarcinoma xenografts; test: In vivo anticancer activity, oxaliplatin-sensitive colorectal xenograft; parameters: species or system BALB/c nu/nu mice; conditions: LoVo xenograft mice, day 14 to day 30; FIG. 5 panel A
Method: (§2) LoVo and LoVo-OXP tumor xenografts were established in 6-week-old BALB/c nu/nu mice by injecting 1×10^7 tumor cells subcutaneously (100 μL in serum free medium) on the left dorsal flank. After 24 h from tumor implantation, mice were randomly divided into five groups (6 animals per group, 8 controls). Chemotherapy was delayed until the tumor became palpable (day 14). From day 14, 1 was dosed daily at 3 mg/kg ip whereas OXP was dosed daily at 2 mg/kg ip. Measurements of body weights and tumor volumes were recorded every 2 days until the experimental endpoint. The long axis (L) and the short axis (S) were measured with caliper, and the tumor volume (V) was calculated using the following equation: V=S×S×L/2. At day 30, animals were sacrificed, and the inhibition of tumor growth was determined by comparing the volume of the control group and the treatment group expressed as % referred to the control animals.
(§3) All the values are the means±S.D. of not less than three measurements. Multiple comparisons were made by Tukey-Kramer test (**p<0.01; *p<0.05).

[5] = tested on: LoVo-OXP colorectal adenocarcinoma xenografts; test: In vivo anticancer activity, oxaliplatin-resistant colorectal xenograft; parameters: species or system BALB/c nu/nu mice; conditions: LoVo-OXP xenograft mice, day 14 to day 30; FIG. 5 panel B
Method: as §2, §3

[6] = Aqueous solubility; type: physicochemical; conditions: compared to compound 2
[7] = tested on: 2008/C13*, LoVo/LoVo-OXP, LoVo MDR; test: MTT cytotoxicity, comparison over the Table 2 cell lines; type: cell-based, human; conditions: 2008 ovarian and LoVo colon sensitive cells
Method: as §1
A LoVo cell line retaining a multidrug resistance phenotype was also considered (LoVo MDR). Cross-resistance profiles were evaluated by means of the resistance factor (RF), which is defined as the ratio between the IC50 value for the resistant cells and that arising from the sensitive cells (Table 2).

[8] = tested on: human ovarian A2780 cancer cell line; conditions: Kasparkova 2010; cited from earlier work

[Cl][Pt]1([Cl])[NH]C2CCC(CC2)[NH]1 [Compound 1, [SP-4-2-(cis)]-dichloro(1,4-cyclohexanediamine-N,N′)platinum]
average cytotoxic activity compared with reference drugs [1]: slightly more effective than oxaliplatin
log Po/w [2]: −1.57±0.10
body weight loss compared with cisplatin ([3]; 1.5 mg kg^−1 each, FIG. 3): about half that caused by cisplatin
tolerability compared with cisplatin ([3]; daily i.p.): better tolerated than cisplatin
adverse side effects (body weight loss) compared with cisplatin ([3]; compound 1 at 3 mg kg^−1, FIG. 3): smaller adverse side effects than cisplatin
body weight loss [4]: roughly equivalent to that obtained by using the parent drug oxaliplatin
body weight loss [5]: roughly equivalent to that obtained by using the parent drug oxaliplatin
aqueous solubility [6]: enhanced aqueous solubility compared to compound 2
cytotoxic activity towards sensitive lines compared with reference drugs [7]: as good as oxaliplatin and better than cisplatin
cytotoxicity, fold greater than cisplatin [8]: 3.4-5.4
